Results as given in ChEMBL document CHEMBL1201862, “PubChem BioAssay data set” (2004).
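Exposure lasted 48 hours, with cells grown in 96-well plates and compounds tested at five concentrations. GI50 marks 50% less growth.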 Activity calls are given as the source filed them. Rule as the data show it: active = GI50 up to about 1.1 µM and inactive = higher.

How the values were obtained:
Test in all cases: NCI anticancer screen, dose series, 48 h
OVCAR-8 = system: OVCAR-8
PC-3 = system: PC-3
UACC-257 = system: UACC-257
MDA-N = system: MDA-N
NCI-H460 = system: NCI-H460
TK-10 = system: TK-10
K562 = system: K562
SF-268 = system: SF-268
786-0 = system: 786-0
MCF7 = system: MCF7
NCI/ADR-RES = system: NCI/ADR-RES
ACHN = system: ACHN
U-251 = system: U-251
HCC 2998 = system: HCC 2998
RXF 393 = system: RXF 393
EKVX = system: EKVX
BT-549 = system: BT-549
NCI-H522 = system: NCI-H522
SK-MEL-2 = system: SK-MEL-2
CCRF-CEM = system: CCRF-CEM
M14 = system: M14
SNB-19 = system: SNB-19
NCI-H226 = system: NCI-H226
COLO 205 = system: COLO 205
UO-31 = system: UO-31
DU-145 = system: DU-145
SK-OV-3 = system: SK-OV-3
MOLT-4 = system: MOLT-4
SN12C = system: SN12C
HOP-92 = system: HOP-92
SK-MEL-28 = system: SK-MEL-28
OVCAR-3 = system: OVCAR-3
SNB-75 = system: SNB-75
UACC-62 = system: UACC-62
HCT-116 = system: HCT-116
HT-29 = system: HT-29
NCI-H23 = system: NCI-H23
OVCAR-4 = system: OVCAR-4
SF-295 = system: SF-295
HOP-62 = system: HOP-62
IGROV-1 = system: IGROV-1
MDA-MB-435 = system: MDA-MB-435
RPMI-8226 = system: RPMI-8226
Hs-578T = system: Hs-578T
Malme-3M = system: Malme-3M
A549 = system: A549
HCT-15 = system: HCT-15
SW-620 = system: SW-620
T47D = system: T47D
SK-MEL-5 = system: SK-MEL-5
HL-60 = system: HL-60
OVCAR-5 = system: OVCAR-5
KM12 = system: KM12
MDA-MB-231 = system: MDA-MB-231
SF-539 = system: SF-539

Measured: GI50

C=CC(=C)CCC(Br)C(C)(C)Cl (stereo not given)
> 100 µM: HCT-15
inactive: OVCAR-8 > 100 µM | PC-3 > 100 µM | UACC-257 > 100 µM | MDA-N > 100 µM | NCI-H460 > 100 µM | TK-10 > 100 µM | K562 > 100 µM | SF-268 > 100 µM | 786-0 > 100 µM | MCF7 46.6 µM | NCI/ADR-RES > 100 µM | ACHN > 100 µM | U-251 > 100 µM | HCC 2998 > 100 µM | RXF 393 > 100 µM | EKVX > 100 µM | BT-549 > 100 µM | NCI-H522 24.3 µM | SK-MEL-2 > 100 µM | CCRF-CEM 87.5 µM | M14 > 100 µM | SNB-19 > 100 µM | NCI-H226 > 100 µM | COLO 205 > 100 µM | UO-31 > 100 µM | DU-145 > 100 µM | SK-OV-3 > 100 µM | MOLT-4 85.1 µM | SN12C > 100 µM | HOP-92 > 100 µM | SK-MEL-28 > 100 µM | OVCAR-3 > 100 µM | SNB-75 > 100 µM | UACC-62 > 100 µM | HCT-116 > 100 µM | HT-29 > 100 µM | NCI-H23 > 100 µM | OVCAR-4 > 100 µM | SF-295 > 100 µM | HOP-62 > 100 µM | IGROV-1 > 100 µM | MDA-MB-435 > 100 µM | RPMI-8226 > 100 µM | Hs-578T > 100 µM | Malme-3M > 100 µM | A549 > 100 µM | SW-620 > 100 µM | T47D > 100 µM | SK-MEL-5 > 100 µM | HL-60 37.1 µM | OVCAR-5 > 100 µM | KM12 > 100 µM | MDA-MB-231 > 100 µM | SF-539 > 100 µM
